# According to patent publication US10905651B1, “Zeinmersome nanocarriers for drug delivery to the liver” (King Abdulaziz University, priority 2020, dated 2021):
# Columns and labels:
# [1] = system: TAA-induced hepatic fibrosis rats; assay: Inflammatory and oxidative markers in liver homogenate of TAA-induced hepatic fibrosis rats; format: in vivo, rat; settings: two months; for IL-6 level in liver homogenate (reversal of TAA-induced increase): FIG. 5A; for TNF-α level in liver homogenate (reversal of TAA-induced increase): FIG. 5B; for MDA level in liver homogenate (reversal of TAA-induced increase): FIG. 6A; for GSH level in liver homogenate (reversal of TAA-induced decrease): FIG. 6B
# Protocol: Rats were given freshly prepared TAA (0.9% w/v in saline solution, 200 mg/kg, ip) twice weekly for eight weeks. A normal control (NC) group of rats (n=8) received injections of the vehicle twice weekly for eight weeks. The TAA-treated rats were randomly assigned to groups (n=8), including a test group for each dosage of a free drug (not encapsulated in ZMS), each dosage of zeinmersomes encapsulating the drug, and a positive control group (PC) having hepatic fibrosis but receiving a vehicle-only treatment instead of a drug treatment. Five groups of rats (n=8) were given freshly prepared TAA (0.9% w/v in saline solution, 200 mg/kg, ip) twice weekly for eight weeks and a normal control (NC) group received vehicle injections, as described in Example 4. The five TAA groups included a positive control group (PC, untreated) and four groups treated with low and high doses (2 and 4 mg/kg/day) of OM as raw drug (OL & OH, respectively) and the same low and high doses (2 and 4 mg/kg/day) of OM formulated as zeinmersomes (OLZMS & OHZMS, respectively). The OM standard drug was suspended in distilled water containing 0.25% w/v carboxymethyl cellulose. The doses were given by oral gavage once daily for two months. […] At the end of treatment duration, blood samples were withdrawn from the retro-orbital plexus of the rats under light ether anesthesia. Plasma was separated and kept at −80° C. until analysis. Then, the rats were sacrificed by cervical dislocation under ether anesthesia. Liver and duodenum were isolated and parts of each were kept in 10% formalin-saline for histopathological examination. Other portions of liver tissue were homogenized. The plasma levels of ALT and AST and the homogenate levels of IL-6, reduced glutathione (GSH), TNF-α, malondialdehyde (MDA), and protein content were measured using ELISA kits (MyBioSource, Inc. CA, USA). In addition, the concentrations of olmesartan in plasma and liver homogenate were measured by HPLC/MS. A part of the liver of each animal was rapidly dissected out, washed, and homogenized in phosphate-buffered saline (0.01M PBS, pH 7.4) using a TissueLyser II (Qiagen; Venlo, Netherlands) at 4° C. to produce a 10% homogenate. The homogenates were centrifugated at 10000 rpm for 15 min at 4° C. and the supernatant was kept at −80° C. till time of analysis. The levels of TNF-α, IL-6, malondialdehyde (MDA), and reduced glutathione (GSH) were measured by the ELISA kits using a micro plate reader (Versa Max, Molecular Devices). The protein content in the liver homogenate was determined by using a colorimetric kit based on Bradford method (Bradford 1976) and the levels of IL-6, TNF-α, GSH, and MDA were expressed/mg protein. The IL-6 level was measured by using the competitive enzyme immunoassay technique utilizing a polyclonal anti-IL-6 antibody and an IL-6-HRP conjugate. The assay sample and buffer were incubated together with IL-6-HRP conjugate in pre-coated plate for one hour. After washing, the wells were then incubated with a substrate for HRP enzyme. The product of the enzyme-substrate reaction formed a blue colored complex. Finally, a stop solution was added to stop the reaction, which then turned the solution yellow. Absorbance was read at 450 nm in a microplate reader. The TNF-α level was measured by using the principle of double antibody sandwich ELISA technique is used. Anti-TNF-α antibody was pre-coated on the wells. Add biotin labeled anti-TNF-α antibodies to combine with the antigens on immune complexes. Avidin-Biotin-Peroxidase Complex was added, and unbound conjugates were washed away with wash buffer. TMB substrates were used to visualize HRP enzymatic reaction producing a blue color product that changed into yellow after adding acidic stop solution. The density of yellow is proportional to TNF-α amount of sample captured in plate. Absorbance was read at 450 nm. The GSH level was measured by using the principle of double antibody sandwich ELISA technique. Anti-GSH antibody was pre-coated on the wells. […]
# AT4 receptors = settings: cited from earlier work
compound,measurement,setting,value
"CCCc1nc(C(C)(C)O)c(C(=O)OCc2oc(=O)oc2C)n1Cc1ccc(-c2ccccc2-c2nnn[nH]2)cc1 [OM, (5-methyl-2-oxo-1,3-dioxol-4-yl)methyl 5-(2-hydroxypropan-2-yl)-2-propyl-3-[[4-[2-(2H-tetrazol-5-yl)phenyl]phenyl]methyl]imidazole-4-carboxylate]",IL-6 level in liver homogenate (reversal of TAA-induced increase),[1]; high dose 4 mg/kg/day oral,significantly reversed
same,TNF-α level in liver homogenate (reversal of TAA-induced increase),[1]; high dose 4 mg/kg/day oral,significantly reversed
same,MDA level in liver homogenate (reversal of TAA-induced increase),[1]; high dose 4 mg/kg/day oral,significantly reversed
same,GSH level in liver homogenate (reversal of TAA-induced decrease),[1]; high dose 4 mg/kg/day oral,significantly reversed
same,IL-6 level in liver homogenate (reversal of TAA-induced increase),[1]; low dose 2 mg/kg/day oral,All treatments except for OL significantly reversed
same,TNF-α level in liver homogenate (reversal of TAA-induced increase),[1]; low dose 2 mg/kg/day oral,All treatments except for OL significantly reversed
same,MDA level in liver homogenate (reversal of TAA-induced increase),[1]; low dose 2 mg/kg/day oral,All treatments except for OL significantly reversed
same,GSH level in liver homogenate (reversal of TAA-induced decrease),[1]; low dose 2 mg/kg/day oral,All treatments except for OL significantly reversed
same,antagonistic effects on the AT4 receptors,AT4 receptors,almost no antagonistic effects
